Results published in patent US4349562A, “Substituted 2-pyrrolidinones” (Hoffmann-La Roche Inc., priority 1978, dated 1982).
Where two headings read alike, the source gives them in different places.

What was measured:
untrained rats = assay: Posthypercapnic "avoidance" acquisition (shuttle box); type: in vivo; conditions: Rattus norvegicus, carbon dioxide 12 seconds, read-out: Minimum active dosage
Experimental: (§1) The ability of the compounds of formula I to counteract experimentally produced cerebral insufficiency in mammals was determined by means of test procedures which are described hereinafter:
POSTHYPERCAPNIC "AVOIDANCE" ACQUISITION
The test apparatus is a "shuttle box" having a 10 cm high hurdle in the middle and an electrifiable grid floor. A loudspeaker is mounted in the soundproof chamber. One group of untrained rats (120-150 g.) is injected with a test preparation and a second group is injected with a control preparation. One or three hours after administration, each group is placed in a pure carbon dioxide environment for 12 seconds. A third group of 10 rats is treated neither with the test preparation nor with carbon dioxide. Three minutes after treatment with carbon dioxide the rats of all three groups must learn an escape response and an avoidance response in the "shuttle box" in the following sequence: 10 seconds silence, 5 seconds noise ("avoidance response"), 15 seconds noise+foot-shock ("escape response"). The sequence is repeated six times. For each of the six experiments the reaction time (time until the rat jumps over the hurdle) of each rat is measured and the statistical significance of the differences between the mean group reaction times is calculated by means of the Mann-Whitney U-test.

Acute toxicity in mice = conditions: mouse, in vivo, po
Source text: The acute toxicities of the compounds of formula I in mice are as follows: […]

[1] = system: squirrel monkeys (Saimiri sciureus); assay: Inhibition of haloperidol-induced "knock out" in a "continuous avoidance" test sequence; type: in vivo, squirrel monkey (Saimiri sciureus); conditions: in Primates, ip, before haloperidol 1.0 mg/kg p.o., delay in knock-out time, read-out: minimum active dosage
Experimental: as §1
INHIBITION OF HALOPERIDOL-INDUCED "KNOCK OUT" IN A "CONTINUOUS AVOIDANCE" TEST SEQUENCE
Male, untrained squirrel monkeys (Saimiri sciureus), each weighing 0.6 to 1.2 kg, are trained in a two-lever Skinner box in the following "continuous avoidance" sequence: "avoidance-shock", interval 40 seconds; "shock-shock", interval 20 seconds; foot-shock, maximum 5 seconds. Monkeys having a normal baseline performance receive haloperidol 1.0 mg/kg p.o. to determine the "knock-out" time (blocking of "avoidance and escape"). Monkeys having stable "knock-out" times are selected for the evaluation of test preparations as a potential cerebral insufficiency improver. The test preparations can be injected at various times before the treatment with haloperidol.
A dosage of a test preparation is considered to be active, if the administration before the treatment with haloperidol, produces a significant delay in the "knock-out" time. The test preparation is administered at different times prior to treatment with haloperidol.

untrained male rats = assay: "Passive avoidance" test with electroshock amnesia; type: in vivo; conditions: Rattus norvegicus, ip, 3 h, i.p., electric shock, retention time after three hours, read-out: minimum active dosage
Experimental: as §1
"PASSIVE AVOIDANCE" TEST WITH ELECTROSHOCK AMNESIA
The test apparatus is a Skinner box having an electrifiable grid floor with a grey quadrangular platform in one corner. Untrained male rats weighing 100-200 g are placed on the platform. When the rats climb down onto the grid floor they receive an electric shock. […] Immediately after acquisition of the passive avoidance response three groups of 20 rats each are formed. One group receives an electric shock between the ears and i.p. injection of the test preparation. The second group receives an electric shock between the ears and an i.p. injection of sodium chloride. The third group receives only an i.p. injection of sodium chloride. After three hours, each rat is placed on the platform once and the retention time, that is, the time the rat remains on the platform (maximum 60 seconds), is measured. The significant activity of the test preparation in comparison to the two control groups is calculated by means of the Rang Test.

Compound	minimal effective dose (untrained rats; ip, after 3 hours) [mg/kg]	LD50 (Acute toxicity in mice) [mg/kg]	minimal effective dose (untrained rats; ip, after 1 hour) [mg/kg]	minimal effective dose (untrained rats; po, after 1 hour) [mg/kg]	minimal effective dose [1] [mg/kg]	minimal effective dose (untrained male rats) [mg/kg]
COc1cccc(CN2CCCC2=O)c1 [m-Methoxybenzyl]	50	1250 to 2500	–	–	–	–
COc1ccccc1C(=O)N1CCCC1=O [o-Methoxybenzoyl]	–	5000	30	100	–	–
O=C1CCCN1Cc1ccc(F)cc1 [p-Fluorobenzyl]	–	1000 to 2000	50	300	–	–
COc1ccc(CN2CCCC2=O)cc1 [p-Methoxybenzyl, 1-(p-methoxybenzyl)-2-pyrrolidinone]	–	2000 to 4000	10	50	1	50
